Reference: ChEMBL document CHEMBL6114967, “Design and synthesis of novel sulfur-substituted triptolide with the ability to induce autophagy through inhibition of SRSF1 expression” (Eur J Med Chem, 2025)

These compounds were tested on HepG2 (assay: Antiproliferative activity against human HepG2 cells assessed as inhibition of cell proliferation incubated for 72 hrs by MTT assay). Conditions: HepG2, 72 h.
Type: functional, cell-based

SMILES	IC50
CC(C)[C@]12O[C@H]1[C@@H]1O[C@]13[C@]1(O[C@H]1C[C@H]1C4=C(CC[C@@]13C)C(=S)O[C@H]4O)[C@H]2O	> 10 µM

These compounds were tested on MCF7 (assay: Antiproliferative activity against human MCF7 cells assessed as inhibition of cell proliferation incubated for 72 hrs by MTT assay). Conditions: MCF7, 72 h.
Type: functional, cell-based

SMILES	IC50
CC(C)[C@]12O[C@H]1[C@@H]1O[C@]13[C@]1(O[C@H]1C[C@H]1C4=C(CC[C@@]13C)C(=S)O[C@H]4O)[C@H]2O	> 10 µM

Each compound was assayed on HCT-116 (assay: Antiproliferative activity against human HCT-116 cells assessed as inhibition of cell proliferation incubated for 72 hrs by MTT assay). Conditions: HCT-116, 72 h.
Type: functional, cell-based

SMILES	IC50
CC(C)[C@]12O[C@H]1[C@@H]1O[C@]13[C@]1(O[C@H]1C[C@H]1C4=C(CC[C@@]13C)C(=S)O[C@H]4O)[C@H]2O	> 10 µM

The compounds below were run on U-251 (assay: Antiproliferative activity against human U-251 cells assessed as inhibition of cell proliferation incubated for 72 hrs by MTT assay). Conditions: U-251, 72 h.
Type: functional, cell-based

SMILES	IC50
CC(C)[C@]12O[C@H]1[C@@H]1O[C@]13[C@]1(O[C@H]1C[C@H]1C4=C(CC[C@@]13C)C(=S)O[C@H]4O)[C@H]2O	> 10 µM

Each compound was assayed on HGC-27 (assay: Antiproliferative activity against human HGC-27 cells assessed as inhibition of cell proliferation incubated for 72 hrs by MTT assay). Conditions: HGC-27, 72 h.
Type: functional, cell-based

SMILES	IC50
CC(C)[C@]12O[C@H]1[C@@H]1O[C@]13[C@]1(O[C@H]1C[C@H]1C4=C(CC[C@@]13C)C(=S)O[C@H]4O)[C@H]2O	> 10 µM

What follows are compounds tested on AGS (assay: Antiproliferative activity against human AGS cells assessed as inhibition of cell proliferation incubated for 72 hrs by MTT assay). Conditions: not given.
Type: functional, cell-based

SMILES	IC50
CC(C)[C@]12O[C@H]1[C@@H]1O[C@]13[C@]1(O[C@H]1C[C@H]1C4=C(CC[C@@]13C)C(=S)O[C@H]4O)[C@H]2O	> 10 µM

The compounds below were run on BGC-823 (assay: Antiproliferative activity against human BGC-823 cells assessed as inhibition of cell proliferation incubated for 72 hrs by MTT assay). Conditions: BGC-823, 72 h.
Type: functional, cell-based

SMILES	IC50
CC(C)[C@]12O[C@H]1[C@@H]1O[C@]13[C@]1(O[C@H]1C[C@H]1C4=C(CC[C@@]13C)C(=S)O[C@H]4O)[C@H]2O	> 10 µM

What follows are compounds tested on SGC-7901 (assay: Antiproliferative activity against human SGC-7901 cells assessed as inhibition of cell proliferation incubated for 72 hrs by MTT assay). Conditions: SGC-7901, 72 h.
Type: functional, cell-based

SMILES	IC50
CC(C)[C@]12O[C@H]1[C@@H]1O[C@]13[C@]1(O[C@H]1C[C@H]1C4=C(CC[C@@]13C)C(=S)O[C@H]4O)[C@H]2O	> 10 µM

The compounds below were run on A549 (assay: Antiproliferative activity against human A549 cells assessed as inhibition of cell proliferation incubated for 72 hrs by MTT assay). Conditions: A549, 72 h.
Type: functional, cell-based

SMILES	IC50
CC(C)[C@]12O[C@H]1[C@@H]1O[C@]13[C@]1(O[C@H]1C[C@H]1C4=C(CC[C@@]13C)C(=S)O[C@H]4O)[C@H]2O	> 10 µM

The compounds below were run on B16-F10 (assay: Antiproliferative activity against mouse B16-F10 cells assessed as inhibition of cell proliferation incubated for 72 hrs by MTT assay). Conditions: B16-F10, 72 h.
Type: functional, cell-based

SMILES	IC50
CC(C)[C@]12O[C@H]1[C@@H]1O[C@]13[C@]1(O[C@H]1C[C@H]1C4=C(CC[C@@]13C)C(=S)O[C@H]4O)[C@H]2O	> 10 µM
